For 17 substances, MIC results are on record in patent US4831026A, “2-oxa-isocephem compounds, compositions containing same and processes of using” (Otsuka Pharmaceutical Co., Ltd., priority 1985, dated 1989).

The subject of assay [1] is S. aureus FDA-209-p. Nature of the assay: Antimicrobial activity test: MIC by the agar plate dilution method, S. aureus FDA-209-p. The class given is cell-based, Staphylococcus aureus. To be noted: inoculum 1×10^6 cells/ml. The procedure:
(§1) In order to investigate the in vitro activity of the under-mentioned compounds against various bacteria, the minimal inhibitory concentration (MIC) values were determined by the agar plate dilution method [see Chemotherapy, 22, 1126-1128 (1974)].
(§2) Each test inoculum was adjusted to 1×10^6 cells/ml (O.D., 600 mμ: 0.07-0.16).

Assay [2] concerns E. coli No. 29. Briefly: Antimicrobial activity test: MIC by the agar plate dilution method, E. coli No. 29. The class given is cell-based. The procedure:
as §1, §2

Assay [3] relates to K. pneumoniae NCTC-9632. Briefly: Antimicrobial activity test: MIC by the agar plate dilution method, K. pneumoniae NCTC-9632. The class given is cell-based. To be noted: inoculum 1×10^6 cells/ml. The procedure:
as §1, §2

Assay [4] deals with P. mirabilis 1287. Briefly: Antimicrobial activity test: MIC by the agar plate dilution method, P. mirabilis 1287. The class given is cell-based. The procedure:
as §1, §2

Assay [5] relates to M. morganii ATCC-25830. Nature of the assay: Antimicrobial activity test: MIC by the agar plate dilution method, M. morganii ATCC-25830. The class given is cell-based. To be noted: inoculum 1×10^6 cells/ml. The procedure:
as §1, §2

The subject of assay [6] is S. marcescens IFO-12648. Briefly: Antimicrobial activity test: MIC by the agar plate dilution method, S. marcescens IFO-12648. The class given is cell-based. The procedure:
as §1, §2

The test system of assay [7] is P. aeruginosa NCTC-10490. Nature of the assay: Antimicrobial activity test: MIC by the agar plate dilution method, P. aeruginosa NCTC-10490. The class given is cell-based. To be noted: inoculum 1×10^6 cells/ml. The procedure: as §1, §2
Setting [8] is: P. mirabilis 1287, inoculum 1×10^6 cells/ml.
[9] abbreviates: E. coli No. 29, inoculum 1×10^6 cells/ml.
Setting [10] is: S. marcescens IFO-12648, inoculum 1×10^6 cells/ml.

Where two headings read alike, the source gives them in different places.

“1-Acetoxyethyl 7-[2-(2-aminothiazol-4-yl)-2-methoxyiminoacetamido]-3-[(1,3,4-thiadiazol-2-yl)thiomethyl]-Δ^3 -O-2-isocephem-4-carboxylate (syn-isomer) [Example 13]”: the MIC was found to be 0.39 mg/L in assay [1]; 0.39 mg/L in assay [2]; 0.78 mg/L in assay [3]; 0.1 mg/L in assay [4] (setting [8]); 0.39 mg/L in assay [5]; 0.78 mg/L in assay [6]. Also, the MIC in assay [7] is 0.78 mg/L.
Take “7-2-(Thiazol-4-yl)-2-tert-butoxycarbonylmethoxyiminoacetamido]-Δ^3 -O-2-isocephem-4-carboxylic acid (syn-isomer) [Example 19]”: the MIC in assay [1] was 0.39 mg/L; in assay [2] (setting [9]) it was at most 0.025 mg/L; in assay [3] it was at most 0.025 mg/L; in assay [4] (setting [8]), at most 0.025 mg/L; in assay [5], at most 0.025 mg/L; in assay [6] (setting [10]) it was 0.05 mg/L. The substance also had an MIC in assay [7] of 3.13 mg/L.
Consider “7-[2-(2-Aminothiazol-4-yl)-2-(2-chloroethoxy)iminoacetamido]-3-[(1,3,4-thiadiazol-2-yl)thiomethyl]-Δ^3 -O-2-isocephem-4-carboxylic acid (syn-isomer) [No. 9]”, for which the MIC came to 0.05 mg/L in assay [1]; 0.2 mg/L in assay [2] (setting [9]); 0.39 mg/L in assay [3]; 0.39 mg/L in assay [4]; 0.78 mg/L in assay [5]; 0.78 mg/L in assay [6]. Also, the MIC in assay [7] was 0.78 mg/L.
Regarding “7-[2-(2-Aminothiazol-4-yl)-2-[(2-butenyl)oxyimino]acetamido]-3-[(1,3,4-thiadiazol-2-yl)thiomethyl]-Δ^3 -O-2-isocephem-4-carboxylic acid trifluoroacetate (syn-isomer) [Example 38]”, the MIC in assay [1] came out at 0.39 mg/L; in assay [2] (setting [9]), 0.1 mg/L; in assay [3] it was 0.2 mg/L; in assay [4] (setting [8]), 0.2 mg/L; in assay [5], 0.39 mg/L; in assay [6] it was 0.78 mg/L. Also, in assay [7], the MIC stood at 1.56 mg/L.
For the substance “7-[2-(2-Aminothiazol-4-yl)-2-[(3-butenyl)oxyimino]acetamido]-3-[(1,3,4-thiadiazol-2-yl)thiomethyl-]-Δ^3 -O-2-isocephem-4-carboxylic acid trifluoroacetate (syn-isomer) [Example 40]”, the MIC in assay [1] stood at 6.25 mg/L; in assay [2], 3.13 mg/L; in assay [3], 3.13 mg/L; in assay [4] (setting [8]), 6.25 mg/L; in assay [5], 3.13 mg/L; in assay [6] (setting [10]), 12.5 mg/L. Also, the MIC in assay [7] was found to be 25 mg/L.
Regarding “7-[2-(2-Chloroacetamidothiazol-4-yl)-2-allyloxyiminoacetamido]-3-[(1,3,4-thiadiazol-2-yl)thiomethyl]-Δ^3 -O-2-isocephem-4-carboxylic acid (syn-isomer) [Example 15]”, the MIC in assay [1] was 0.39 mg/L; in assay [2] (setting [9]), at most 0.025 mg/L; in assay [3], 0.1 mg/L; in assay [4] (setting [8]), at most 0.025 mg/L; in assay [5], at most 0.025 mg/L; in assay [6] (setting [10]), 0.1 mg/L. Also, the MIC in assay [7] was determined as 0.78 mg/L.
Turning to “7-[2-(2-Chloroacetamidothiazol-4-yl)-2-cyclopentyloxyiminoacetamido]-3-[(1,3,4-thiadiazol-2-yl)thiomethyl]-Δ^3 -O-2-isocephem-4-carboxylic acid (syn-isomer) [Example 26]”, the MIC is 0.2 mg/L in assay [1]; 0.05 mg/L in assay [2] (setting [9]); 0.2 mg/L in assay [3]; at most 0.025 mg/L in assay [4] (setting [8]); 0.05 mg/L in assay [5]; 0.39 mg/L in assay [6]. The same substance showed an MIC in assay [7] of 0.39 mg/L.
As for “7-[2-(2-Chloroacetamidothiazol-4-yl)-2-methoxyiminoacetamido]-3-[(1,4,5,6-tetrahydro-4-methyl-5,6-dioxo-1,2,4-triazin-3-yl)thiomethyl]-Δ^3 -O-2-isocephem-4-carboxylic acid (syn-isomer) [Example 17]”, the MIC in assay [1] was 0.2 mg/L; in assay [2] (setting [9]) it was at most 0.025 mg/L; in assay [3], at most 0.025 mg/L; in assay [4] (setting [8]) it was at most 0.025 mg/L; in assay [5], at most 0.025 mg/L; in assay [6] (setting [10]), at most 0.025 mg/L. The substance also showed an MIC in assay [7] of 6.25 mg/L.
On to “7-[2-(2-Chloroacetamidothiazol-4-yl)-2-methoxyiminoacetamido]-3-[(carbamoyloxy)methyl]-Δ^3 -O-2-isocephem-4-carboxylic acid (syn-isomer) [Example 8]”, for which the MIC in assay [1] was determined as 0.78 mg/L; in assay [2] (setting [9]), 0.2 mg/L; in assay [3] it was 0.2 mg/L; in assay [4] (setting [8]) it was 0.05 mg/L; in assay [5] it was 0.1 mg/L; in assay [6], 0.39 mg/L. In addition, the MIC in assay [7] was found to be 1.56 mg/L.
For “7-[2-(2-Formamidothiazol-4-yl)-2-ethoxyiminoacetamido]-3-[(1,3,4-thiadiazol-2-yl)thiomethyl-]-Δ^3 -O-2-isocephem-4-carboxylic acid (syn-isomer) [Example 31]”, the MIC in assay [1] was 0.39 mg/L; in assay [2] (setting [9]) it was at most 0.025 mg/L; in assay [3], 0.1 mg/L; in assay [4] (setting [8]), at most 0.025 mg/L; in assay [5], 0.05 mg/L; in assay [6], 0.39 mg/L. The substance further yielded an MIC in assay [7] of 25 mg/L.
With “7-[2-(2-Trichloroacetamidothiazol-4-yl)-2-methoxyiminoacetamido]-3-[(carbamoyloxy)methyl]-Δ^3 -O-2-isocephem-4-carboxylic acid (syn-isomer) [Example 7]”, the MIC in assay [1] is 0.78 mg/L; in assay [2] (setting [9]), 0.1 mg/L; in assay [3], 0.2 mg/L; in assay [4] (setting [8]), at most 0.025 mg/L; in assay [5], at most 0.025 mg/L; in assay [6], 0.39 mg/L. In assay [7], this substance displayed an MIC of 0.78 mg/L.
In the case of “7-[2-(Thiazol-4-yl)-2-carboxymethoxyiminoacetamido]-Δ^3 -O-2-isocephem-4-carboxylic acid (syn-isomer) [No. 6]”, the minimum inhibitory concentration (MIC) in assay [1] was 0.39 mg/L; in assay [2] (setting [9]) it was 0.1 mg/L; in assay [3], 0.2 mg/L; in assay [4] (setting [8]), at most 0.025 mg/L; in assay [5], 0.05 mg/L; in assay [6] (setting [10]), 0.2 mg/L. The same substance had an MIC in assay [7] of 12.5 mg/L.
In the case of “Benzhydryl 7-[2-(2-formamidothiazol-4-yl)-2-(2-chloroethoxy)iminoacetamido-]-3-[(1,3,4-thiadiazol-2-yl)thiomethyl]-Δ^3 -O-2-isocephem-4-carboxylate (syn-isomer) [Example 32]”, the MIC in assay [1] came to 0.39 mg/L; in assay [2] (setting [9]) it was 0.05 mg/L; in assay [3], 0.1 mg/L; in assay [4] (setting [8]) it was 0.05 mg/L; in assay [5], 0.1 mg/L; in assay [6] it was 0.78 mg/L.
Take “Benzhydryl 7-[2-(2-formamidothiazol-4-yl)-2-methylthiomethoxyiminoacetamido]-3-[(1,3,4-thiadiazol-2-yl)thiomethyl]-Δ^3 -O-2-isocephem-4-carboxylate (syn-isomer) [Example 44]”: the MIC is 0.39 mg/L in assay [1]; 0.2 mg/L in assay [2]; 0.39 mg/L in assay [3]; 0.2 mg/L in assay [4]; 0.78 mg/L in assay [5]; 1.56 mg/L in assay [6]. The MIC in assay [7] amounted to 3.13 mg/L.
Regarding “Benzhydryl (6S,7S)-7-[2-(2-tritylaminothiazol-4-yl)-2-methoxyiminoacetamido]-3-[(1,3,4-thiadiazol-2-yl)thiomethyl]-Δ^3 -O-2-isocephem-4-carboxylate (syn-isomer) [Example 58]”, the MIC in assay [1] was 0.39 mg/L; in assay [2] (setting [9]), at most 0.025 mg/L; in assay [3], at most 0.025 mg/L; in assay [4] (setting [8]), at most 0.025 mg/L; in assay [6] it was 0.39 mg/L; in assay [7], 25 mg/L.
With “Benzhydryl (6S,7S)-7-[2-(2-tritylaminothiazol-4-yl)- 2-cyanomethoxyiminoacetamido]-3-[(1,3,4-thiadiazol-2-yl)thiomethyl]-Δ^3 -O-2-isocephem-4-carboxylate (syn-isomer) [Example 61]”, the MIC was 0.05 mg/L in assay [2] (setting [9]); 0.05 mg/L in assay [3]; at most 0.025 mg/L in assay [4] (setting [8]); at most 0.025 mg/L in assay [5]; 0.78 mg/L in assay [6]; 3.13 mg/L in assay [7].
On to “Benzyl 7-[2-(2-chloroacetamidothiazol-4-yl)-2-methoxyiminoacetamido]-3-[(1,3,4-thiadiazol-2-yl)thiomethyl]-Δ^3 -O-2-isocephem-4-carboxylate (syn-isomer) [Example 10]”, for which the MIC was 0.39 mg/L in assay [1]; 0.39 mg/L in assay [2]; 0.39 mg/L in assay [3]; 0.1 mg/L in assay [4] (setting [8]); 0.2 mg/L in assay [5]; 0.39 mg/L in assay [6].

By MIC is commonly meant the lowest concentration found to suppress growth. A lower MIC goes with greater potency.
